In patent EP0755928B1, “5-AMINOFLAVONE DERIVATIVES” (KYOWA HAKKO KOGYO CO., Ltd., priority 1995, dated 1996):

Tests used:
[1] = test system: estrogen-dependent human mammary cancer MCF-7; test: Antitumor effects against estrogen-dependent human mammary cancer MCF-7 transplanted in nude mice; assay type: in vivo, female BALB/c-nu/nu mouse; conditions: Mus musculus, MCF7, po; dose 25 mg/kg orally, 5 days per week for two weeks; ratio of V/V0 of treated group to control group; judgement date day 14 to 25, differs per compound; read-out: T/C
From the text: Antitumor effects against estrogen-dependent human mammary cancer MCF-7
The tumor fragment (2 mm x 2 mm x 2mm) of human hormone dependent mammary cancer MCF-7 was transplanted subcutaneously in the flank of female BALB/c-nu/nu mouse (Nihon Crea), 7 to 9 weeks age. […] Mice having the tumor volume 25 to 200 mm^3 were selected 3 to 4 weeks after transplantation, and the test compounds were orally administered repeatedly to the groups (5 animals per group) for 5 days per a week, for total two weeks. In addition, estradiol propionate was administered again on the date of initial administration of the test compounds. Length and width of the tumor were determined every day, and the tumor volumes were calculated by means of ellipsoid approximation according to the following equation: […] [formula]
The tumor volume at initial administration (V0) and on the day of judgement (V) was calculated, and the tumor growth rate (V/V0) was calculated. T/C value was obtained as the ratio of V/V0 value of treated group relative to that of control group.

[2] = test system: Human mammary cancer MCF-7 cell; test: Human mammary cancer MCF-7 cell growth inhibition test (neutral red); assay type: cell-based; conditions: MCF7, MCF-7 cells, 72 hours, medium with 10^-8M estradiol, neutral red absorbance at 550 nm
Description: Human mammary cancer MCF-7 cell growth inhibition test
Each 0.1 ml of MCF-7 cells which had been prepared in a concentration of 5 x 10^4/ml using a medium prepared by adding 10% bovine fetal serum, 10^-8M estradiol (manufactured by Sigma), 100 units/ml penicillin and 100 µg/ml streptomycin to RPMI1640 medium (referred to as Medium B hereinafter) was distributed in each well of 96 well-microtiter plate. […] The supernatant was removed, each 0.1 ml of Medium B containing 0.02% neutral red was added to the residue, the mixture was allowed to stand at 37 °C for 1 hour in a CO2 gas incubator and the cells were stained by neutral red dye. The supernatant was removed and the residue was washed once with a physiological saline. Then, the dye was extracted with 0.001 N hydrochloric acid/30% ethanol and the absorbance at 550 nm was determined with a microplatereader.

[3] = test system: Mature female BALB/c mice; test: Effect on uterus weight of mature mouse (anti-estrogenic activity); assay type: in vivo; conditions: dose 25 mg/kg, orally, repeatedly for 4 days; uteri isolated after 5 days; not treated group 106 mg
Description: The effect against the decrease in uterus weight of mature mouse
Mature female BALB/c mice, 9 weeks age, were divided into two groups (6 animals per group). The test compounds were repeatedly administered orally to one group for 4 days. After 5 days, the uteri were isolated and the weight thereof was measured.

Compound	response vs control in vivo at 25 mg/kg [1] [%]	IC50 [2] [nM]	weight of uterus [3] [mg]
COC(=O)CNCC(=O)OCc1c(F)c(N)c2c(=O)cc(-c3ccc(N)c(F)c3)oc2c1F [Compound 14, 5-Amino-2-(4-amino-3-fluorophenyl)-6,8-difluoro-7-methoxycarbonylmethylaminoacetoxymethyl-4H-1-benzopyran-4-one]	1.3	13	–
Nc1ccc(-c2cc(=O)c3c(N)c(F)c(COC(=O)CN4CCC(O)CC4)c(F)c3o2)cc1F [Compound 12, 5-Amino-2-(4-amino-3-fluorophenyl) -6,8-difluoro-7-(4-hydroxypiperidino)acetoxymethyl-4H-1-benzopyran-4-one]	3.5	18	–
CCN(CC)C(=O)OCc1c(F)c(N)c2c(=O)cc(-c3ccc(N)c(F)c3)oc2c1F [Compound 1, 5-Amino-2-(4-amino-3-fluorophenyl)-7-diethylcarbamoyloxymethyl-6,8-difluoro-4H-1-benzopyran-4-one]	–	350	–
Nc1ccc(-c2cc(=O)c3c(N)c(F)c(COC(=O)CN4CCOCC4)c(F)c3o2)cc1F [Compound 11, 5-Amino-2-(4-amino-3-fluorophenyl)-6,8-difluoro-7-morpholinoacetoxymethyl-4H-1-benzopyran-4-one]	4.4	17	–
CN(C)CCCC(=O)OCc1c(F)c(N)c2c(=O)cc(-c3ccc(N)c(F)c3)oc2c1F [Compound 8, 5-A-mino-2-(4-amino-3-fluorophenyl)-7-(4-dimethylaminobutyryl)oxymethyl-6,8-difluoro-4H-1-benzopyran-4-one]	15	29	–
CN1CCN(C(=O)OCc2c(F)c(N)c3c(=O)cc(-c4ccc(N)c(F)c4)oc3c2F)CC1 [Compound 2, 5-Amino-2-(4-amino-3-fluorophenyl)-6,8-difluoro-7-(4-methylpiperazinyl)carbonyloxymethyl-4H-1-benzopyran-4-one]	–	230	–
CN(C)CCC(=O)OCc1c(F)c(N)c2c(=O)cc(-c3ccc(N)c(F)c3)oc2c1F [Compound 7, 5-Amino-2-(4-amino-3-fluorophenyl)-7-(3-dimethylaminopropionyl) oxymethyl-6,8-difluoro-4H-1-benzopyran-4-one]	4.1	19	–
Nc1ccc(-c2cc(=O)c3c(N)c(F)c(COC(=O)CN4CCCCC4)c(F)c3o2)cc1F [Compound 9, 5-Amino-2-(4-amino-3-fluorophenyl)-6,8-difluoro-7-piperidinoacetoxymethyl-4H-1-benzopyran-4-one]	4.2	33	–
CN1CCN(CC(=O)OCc2c(F)c(N)c3c(=O)cc(-c4ccc(N)c(F)c4)oc3c2F)CC1 [Compound 10, 5-Amino-2-(4-amino-3-fluorophenyl)-6,8-difluoro-7-(4-methylpiperazinyl)acetoxymethyl-4H-1-benzopyran-4-one]	7	87	–
C=CCOC(=O)OCc1c(F)c(N)c2c(=O)cc(-c3ccc(N)c(F)c3)oc2c1F [Compound 15, 7-Allyloxycarbonyloxymethyl-5-amino-2-(4-amino-3-fluorophenyl)-6,8-difluoro-4H-1-benzopyran-4-one]	–	81	–
CN(C)CCN(C)CC(=O)OCc1c(F)c(N)c2c(=O)cc(-c3ccc(N)c(F)c3)oc2c1F [Compound 13, 5-Amino-2-(4-amino-3-fluorophenyl)-7-[N-(2-dimethylaminoethyl)-N-methylamino)acetoxymethyl-6,8-difluoro-4H-1-benzopyran-4-one]	2.2	–	–
CN(C)CC(=O)OCc1c(F)c(N)c2c(=O)cc(-c3ccc(N)c(F)c3)oc2c1F [Compound 6, 5-Amino-2-(4-amino-3-fluorophenyl) -7-dimethylaminoacetoxymethyl-6,8-difluoro-4H-1-benzopyran-4-one]	1.2	26	67
